{
  "source": "patent US20150160214A1",
  "about": "“Quantitation of Cellular Adhesion Dynamics Across Immobilized Receptors Under Rheological Shear Flow” (Mayo Foundation for Medical Education and Research, priority 2013, published 2015)",
  "key": {"[1]": {"tested_on": "T1, platelet GP1bα (Homo sapiens)", "T1 construct": "perfused at low shear to enable platelets to attach to the surface immobilized domains; endogenous in cells; host or cells: platelets in citrated whole blood of healthy donors", "T1 sequence (P04275 1261-1471)": "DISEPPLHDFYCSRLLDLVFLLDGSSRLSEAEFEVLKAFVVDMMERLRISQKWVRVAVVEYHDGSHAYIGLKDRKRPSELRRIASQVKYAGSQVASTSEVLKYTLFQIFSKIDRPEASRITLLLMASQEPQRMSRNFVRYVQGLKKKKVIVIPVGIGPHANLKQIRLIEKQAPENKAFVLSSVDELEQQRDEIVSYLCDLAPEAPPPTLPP", "test": "Platelet pause times and translocation velocities on immobilized A1 under shear flow, parallel-plate flow chamber (Example 1)", "type": "cell-based", "conditions": "300 μM peptide incubated with immobilized A1-1261; 66 μM in whole blood and buffer", "source_text": "(§1) To understand the effect of the N-terminal peptide on the function of the A1-domain of vWF, the protein was expressed with (A1-1238) and without the N-terminal peptide (A1-1261). The inventor used a flow chamber to measure the dynamics of platelet interactions with A1-1238 and A1-1261. Each domain variant was immobilized on glass slides with a modified Cu^2+ chelating chemistry that enabled surface capture via the N-terminally fused histidine tag. This method ensured reproducible capture of the proteins eliminating possible structural issues associated with nonspecific immobilization on plastic or glass. The slides were completely inert to platelets. Next, 1 mL of citrated whole blood followed by Tris buffered saline was perfused at low shear to enable platelets to attach to the surface immobilized domains. After red cells were perfused away with buffer, the translocation of the remaining attached platelets over the surfaces was recorded at each shear rate and the velocities and pause times calculated from the coordinate data of each platelet on the surface as described in the methods. […] In addition, the translocation velocities were increased for A1-1238 relative to A1-1261. To determine if this N-terminal sequence could inhibit the catch bond when free in solution, the inventor incubated surface immobilized A1-1261 with excess free peptide and added the free peptide to 1 mL of whole blood and to our perfusion buffer and performed the assay.\n(§2) Determination of platelet pause times. Determination of platelet pause times A Glycotech† rectangular parallel-plate flow chamber was mounted to slides with a chelated Cu 21 surface obtained from Microsurfaces Inc. # to which the A1-1261 and A1-1238 domains in TBS were immobilized by the 63His-Tag. Citrated whole blood (1 mL) obtained from informed consent of healthy donors with approval from the Baylor College of Medicine institutional review board followed by buffer was perfused through the chamber at 300s21 for A1-1261 and 700s21 for A1-1238 shear rate to attach platelets to the surface immobilized proteins using a syringe driven variable flow rate pump. The shear was increased incrementally and 1 min movies were recorded at 25 frames/s in phase contrast with 232 pixel binning on a Zeiss Axiocam MRm camera attached to a Zeiss Axio Observer D1 inverted microscope. Tracking analysis was performed using Mediacybernetics ImagePro Premier§. The resulting X-Y coordinate data for each platelet track was differentiated into instantaneous velocities using a Savitzky-Golay algorithm (Savitzky:1964) with a five data point window size and a second-order polynomial implemented into a Mathamatica notebook. These platelet tracks were retained for statistical analysis if the platelet was present for at least 1 s and travelled a total distance greater than 1 lm. Distance travelled in pixels was converted to lm given the camera pixel size=6.45 μm^2, pixel binning, and microscope magnification=400×. Pause times were determined by the amount of time (seconds) a platelets velocity was =0±0.13 μm/s, within the noise. Pause times for all platelet tracks are reported as the mean of the medians. Examples of this analysis for individual platelets and for multiple platelets are provided in the Supporting Information.\n(§3) Frame by frame platelet trajectory analysis. Tracking coordinates of individual platelets in units of pixels were exported from ImagePro Premier as a text file and imported into a Mathematica notebook that calculates a Savitzky-Golay first derivative of the total distance traveled over time (Savitzky:1964). The distance was calculated from the X and Y coordinates with the following equation.\n(§4) Pause times were determined from the length of time the platelet velocity remained within 0±4 pixel/sec=0.129 μm/sec as illustrated in FIG. 8B. Median pause times were calculated from velocity time profiles for all platelet tracks, stored in a list and translated to histograms for multiple platelets. […]"}, "platelet GP1bα": {"target": "T2, platelet GP1bα (Homo sapiens, UniProt P04275)", "T2 construct": "perfused at low shear to enable platelets to attach to the surface immobilized domains; endogenous in cells; host or cells: platelets in citrated whole blood of healthy donors", "test": "Platelet pause times and translocation velocities on immobilized A1 under shear flow, parallel-plate flow chamber (Example 1)", "type": "cell-based", "source_text": "as §1, §2, §3, §4"}, "A1-1261": {"target": "T3, A1-1261 (Homo sapiens, UniProt P04275)", "T3 construct": "A1-1261 (amino acids D1261-P1471); made in house", "test": "Binding of free N-terminal peptide to A1-1261 from thermal unfolding enthalpy (tryptophan fluorescence)", "source_text": "This would imply a specific interaction between this N-terminal sequence and the A1 domain when covalently linked in sequence. The only way to examine such a stabilization using spectroscopy was the measurement of thermal unfolding via fluorescence. Since the N-terminal peptide also contains a single tyrosine residue, the excitation wavelength was changed to λ=295 nm in order to measure tryptophan fluorescence and the effect of the peptide on the unfolding of the A1-domain was observed indirectly. Thermal scans of 2 μM A1-1261 were performed as a function of increasing amounts of the N-terminal peptide at 2° Celsius/min. […] Thermal scans were also done in the presence of a peptide with the same amino acid composition, but a scrambled sequence. The inset of FIG. 7A compares the raw fluorescence thermal scans in the presence of 300 μM scrambled and N-terminal peptides. Unfolding in the presence of excess scrambled peptide was equivalent to unfolding in the absence of either peptide. […] Fitting the enthalpy data to a simple single site binding model yields a dissociation constant of ≈46±6 μM.\nPrior to all spectroscopic thermal scans, protein samples were equilibrated at 10° Celsius for 15 min to obtain a stable baseline. CD thermal scans between 10 and 95° Celsius were recorded at λ=222 nm using a protein concentration of 1 or 2 μM in a 1 cm quartz cell under moderate stirring. Scan rates were 0.5, 1.0, 1.5 and 2.0° Celsius/min. Integration time for each data point was 20 s with a 1 nm bandwidth. Fluorescence thermal scans between 10 and 95 Celsius were recorded at an emission λ=359 nm after excitation λ=280 nm or λ=295 nm using 2 μM protein in a 1 cm quartz cell with moderate stirring. Scan rates were 0.4 or 0.6, 0.9, 1.6 and 2.0° Celsius/min. At each temperature, relative fluorescence intensity was collected for 4 s and averaged. Thermal scans in the presence of N-terminal peptide at 2.0° Celsius/min were preceded by 1 h incubations at 20° Celsius with 0.02-300 μM peptide.\nFor the thermal unfolding studies in the presence of peptide, the inventor treated the change in enthalpy of unfolding, ΔHT*^‡ as an observable directly proportional to the degree of binding, X, because the T* was not dependent on peptide concentration.\nFor the simple single site binding model, A1+P<->A1P, where P is the peptide, the degree of binding is given by\nwhere K is the binding affinity and the free peptide, [P], concentration is given in terms of the total protein, A1T, and peptide, PT, concentrations."}, "[2]": {"test": "Far-UV CD spectra, secondary structure content (Example 1)", "type": "physicochemical", "conditions": "free in solution", "source_text": "Both proteins show a spectrum dominated by relatively high α-helical content as indicated by the two minima at λ=222 nm and 208 nm. […] By contrast, the spectrum of the N-terminal peptide is dominated by the contribution of random coil-structure and spectrally equivalent to a peptide containing a scrambled sequence but identical amino acid composition."}},
  "note": "Several values for one entry are separate records, joined by “and”; a condition that tells them apart may be missing. Identical values can stand only once.",
  "data": [
    {"substance": "H-QEPGGLVVPPTDAPVSPTTLYVE-OH [N-terminal peptide]", "values": [
      {"measurement": "Effect of free peptide on platelet pause times on immobilized A1-1261", "setting": "[1]", "value": "significant decrease in pause times"},
      {"measurement": "Effect of free peptide on platelet translocation velocities on immobilized A1-1261", "setting": "platelet GP1bα; 300 μM peptide incubated with immobilized A1-1261, 66 μM in whole blood and buffer", "value": "increase in translocation velocities"},
      {"measurement": "Effect of free peptide on platelet pause times or translocation velocities on immobilized A1-1238", "setting": "platelet GP1bα; free peptide added", "value": "did not significantly change the pause times or translocation velocities"},
      {"measurement": "Effect of peptide on unfolding enthalpy of A1-1238", "setting": "A1-1261", "value": "did not change the unfolding enthalpy"},
      {"measurement": "Kd", "setting": "A1-1261; single site binding model fit to unfolding enthalpy, 2 μM A1-1261, 2° Celsius/min, read-out: Dissociation constant (KD) of N-terminal peptide binding to A1-1261", "value": "46 µM and ~46 µM"},
      {"measurement": "β and random coil content of the sequence", "setting": "[2]", "value": "> 80", "unit": "%"}
    ]}
  ]
}
